According to paper PMC12856970 (Clinical Pharmacology in Drug Development, 2025):
Entries after “also recorded” stand apart in the source; their conditions may differ. Where two headings read alike, the source gives them in different places.

What was measured:
[1] = Phase 1 DDI study: plasma PK of atorvastatin and its metabolites after atorvastatin alone or with steady-state asciminib (LC-MS/MS, non-compartmental); details: for AUCinf, Gmean (GCV%) / AUCinf, Mean (SD) / AUCinf, Median (min, max) / AUClast, Gmean (GCV%) / AUClast, Mean (SD) / AUClast, Median (min, max) / Cmax, Gmean (GCV%) / Cmax, Mean (SD) / Cmax, Median (min, max) / T1/2, Gmean (GCV%) / T1/2, Mean (SD) / T1/2, Median (min, max) / Tmax, Median (min, max): plasma; for AUCinf, Adjusted Gmean / AUClast, Adjusted Gmean / Cmax, Adjusted Gmean: linear mixed-effects model, back-transformed; for AUCinf Gmean ratio / AUClast Gmean ratio / Cmax Gmean ratio: atorvastatin + asciminib/atorvastatin; for Effect of asciminib on Cmax, AUClast and AUCinf (in words): atorvastatin + steady-state asciminib versus atorvastatin alone
[2] = set-up: method as in PMID 30580575; details: monotherapies; cited from earlier work
[3] = tested on: CYP3A4; details: midazolam with asciminib 200 mg BID; cited from earlier work
[4] = tested on: CYP3A4; details: midazolam single dose co-administered with asciminib 40 mg BID at steady state vs alone; cited from earlier work
[5] = tested on: OATP; set-up: method as in PMID 27317801; details: after a single dose of rifampicin, healthy participants; cited from earlier work
[6] = tested on: OATP1B; assay: Phase 1 DDI study: plasma CP-1 AUC0-24 as endogenous biomarker of OATP1B, without or with steady-state asciminib; details: for AUC0‐24, Adjusted Gmean: linear mixed-effects model
[7] = cited from earlier work
[8] = tested on: OATP1B3; details: in vitro; cited from earlier work
[9] = tested on: OATP1B1; details: in vitro; cited from earlier work
[10] = tested on: OATP1B; set-up: method as in data on file; details: single asciminib dose of 200 mg; ref data on file; cited from earlier work
[11] = Phase 1 DDI study: asciminib plasma trough concentration (Ctrough); type: in vivo, human (healthy participants); details: asciminib 80 mg QD (i.e. on day 8)
[12] = tested on: P‐gp; details: in vitro; cited from earlier work
[13] = tested on: BCRP; details: in vitro; cited from earlier work
[14] = Phase 1 DDI study: safety and tolerability (AEs, ECG); type: in vivo, human (healthy participants); details: asciminib 80 mg QD multiple doses alone or with atorvastatin 20 mg
[15] = atorvastatin 20 mg single dose + asciminib 80 mg QD at steady state (day 9)
[16] = atorvastatin 20 mg single oral dose alone (day 1)
[17] = atorvastatin + asciminib 80 mg QD steady state
[18] = atorvastatin + asciminib at steady state
[19] = steady state, 40 mg BID regimen

CC(C)c1c(C(=O)Nc2ccc(O)cc2)c(-c2ccccc2)c(-c2ccc(F)cc2)n1CC[C@@H](O)C[C@@H](O)CC(=O)O [p‐Hydroxy‐atorvastatin, p‐hydroxy‐atorvastatin]
AUCinf, Gmean (GCV%) [1, 15]: 6.2 (95.2) ng x h/mL
AUCinf, Mean (SD) [1, 15]: 7.67 (4.91) ng x h/mL
AUCinf, Median (min, max) [1, 15]: 6.63 (1.50, 15.7) ng x h/mL
AUClast, Gmean (GCV%) [1, 15]: 2.9 (87.7) ng x h/mL
AUClast, Mean (SD) [1, 15]: 3.83 (3.28) ng x h/mL
AUClast, Median (min, max) [1, 15]: 2.99 (0.717, 13.6) ng x h/mL
Cmax, Gmean (GCV%) [1, 15]: 0.16 (48.0) ng/mL
Cmax, Mean (SD) [1, 15]: 0.171 (0.0880) ng/mL
Cmax, Median (min, max) [1, 15]: 0.145 (0.0699, 0.425) ng/mL
T1/2, Gmean (GCV%) [1, 15]: 22.8 (58.5) h
T1/2, Mean (SD) [1, 15]: 25.3 (10.9) h
T1/2, Median (min, max) [1, 15]: 26.0 (8.45, 40.9) h
Tmax, Median (min, max) [1, 15]: 10.00 (1.00, 12.00) h
Tmax, Median (min, max) ([1]; atorvastatin 20 mg single dose + asciminib 80 mg QD at steady state (day 9), listed as p‐hydroxy‐atorvastatin): approximately 10 h
AUCinf, Gmean (GCV%) [1, 16]: 7.4 (53.2) ng x h/mL
AUCinf, Mean (SD) [1, 16]: 8.16 (4.48) ng x h/mL
AUCinf, Median (min, max) [1, 16]: 6.60 (4.86, 14.6) ng x h/mL
AUClast, Gmean (GCV%) [1, 16]: 3.1 (69.8) ng x h/mL
AUClast, Mean (SD) [1, 16]: 3.73 (2.75) ng x h/mL
AUClast, Median (min, max) [1, 16]: 2.56 (0.964, 12.5) ng x h/mL
Cmax, Gmean (GCV%) [1, 16]: 0.17 (53.8) ng/mL
Cmax, Mean (SD) [1, 16]: 0.189 (0.112) ng/mL
Cmax, Median (min, max) [1, 16]: 0.144 (0.0793, 0.468) ng/mL
T1/2, Gmean (GCV%) [1, 16]: 30.4 (24.6) h
T1/2, Mean (SD) [1, 16]: 31.1 (7.50) h
T1/2, Median (min, max) [1, 16]: 30.4 (24.3, 39.3) h
Tmax, Median (min, max) [1, 16]: 10.00 (1.50, 12.01) h
Tmax, Median (min, max) ([1]; atorvastatin 20 mg single oral dose alone (day 1), listed as p‐hydroxy‐atorvastatin): approximately 10 h
AUCinf, Adjusted Gmean [1, 17]: 5.92 ng x h/mL
AUClast, Adjusted Gmean [1, 17]: 2.89 ng x h/mL
Cmax, Adjusted Gmean [1, 17]: 0.156 ng/mL
Time post-dose at which mean Cmax was observed (mean concentration-time profile) [1, 18]: 10 h
AUCinf Gmean ratio [1]: 0.74
AUClast Gmean ratio [1]: 0.98
Cmax Gmean ratio [1]: 0.98
Effect of asciminib on Cmax, AUClast and AUCinf (in words) [1]: did not affect; also recorded: negligible
Time post-dose at which mean Cmax was observed (mean concentration-time profile) ([1]; atorvastatin alone): 10 h
AUCinf, Adjusted Gmean ([1]; atorvastatin alone): 8.04 ng x h/mL
AUClast, Adjusted Gmean ([1]; atorvastatin alone): 2.96 ng x h/mL
Cmax, Adjusted Gmean ([1]; atorvastatin alone): 0.160 ng/mL

CC[C@H](C)C(=O)O[C@H]1C[C@H](O)C=C2C=C[C@H](C)[C@H](CC[C@@H](O)C[C@@H](O)CC(=O)O)[C@H]21 [pravastatin]
Rate of hospitalization due to rhabdomyolysis [2]: 0.44 per 10,000 patient‐years

CC(C)c1c(C(=O)Nc2ccccc2)c(-c2ccccc2)c(-c2ccc(F)cc2)n1CC[C@@H](O)C[C@@H](O)CC(=O)O [Atorvastatin]
Rate of hospitalization due to rhabdomyolysis [2]: 0.44 per 10,000 patient‐years

Cc1ncc2n1-c1ccc(Cl)cc1C(c1ccccc1F)=NC2 [midazolam]
Increase in AUCinf (PBPK prediction) [3]: 88%
Increase in Cmax (PBPK prediction) [3]: 58%
Increase in AUCinf [4]: 28%
Increase in AUClast [4]: 27%
Increase in Cmax [4]: 11%

coproporphyrin‐1 [CP‐1]
Increase in Cmax [5]: 5.7 fold
AUC0‐24 Gmean ratio ([6]; atorvastatin + asciminib/atorvastatin): 1.02
Effect of asciminib on CP‐1 plasma concentrations (in words) ([6]; steady-state asciminib 80 mg QD): not affected; also recorded: remained unaffected
AUC0‐24, Adjusted Gmean ([6]; treatment 'Atorvastatin + asciminib' (steady-state asciminib)): 12,500 pg x h/mL
AUC0‐24, Adjusted Gmean ([6]; treatment 'Atorvastatin' (without asciminib)): 12,300 pg x h/mL
AUC0‐24, Gmean (GCV%) ([6]; with asciminib 80 mg QD, day 8, plasma): 12,600 pg x h/mL
AUC0‐24, Gmean (GCV%) ([6]; without asciminib, day 4, plasma): 12,300 pg x h/mL

O=C(Nc1ccc(OC(F)(F)Cl)cc1)c1cnc(N2CC[C@@H](O)C2)c(-c2ccn[nH]2)c1 [asciminib, Asciminib]
Time of dosing to reach steady-state levels [7]: ≤ 3 days
AUC0‐12, Gmean [7, 19]: 5262 ng x h/mL
Cmax, Gmean [7, 19]: 793 ng/mL
Cmax, Gmean ([7]; steady state, 80 mg QD regimen): 1781 ng/mL
Inhibition of OATP1B3 (in words) [8]: could inhibit; also recorded: can inhibit
Inhibition of OATP1B1 (in words) [9]: could inhibit; also recorded: can inhibit
DDI effect on CP‐1 (in words) [10]: no DDI effect
Time of dosing until steady state was attained [11]: 3 days
Inhibition of P‐gp (in words) [12]: could inhibit; also recorded: can inhibit
Inhibition of BCRP (in words) [13]: could inhibit; also recorded: can inhibit
Tolerability (in words) [14]: well tolerated

CC(C)c1c(C(=O)Nc2ccccc2O)c(-c2ccccc2)c(-c2ccc(F)cc2)n1CC[C@@H](O)C[C@@H](O)CC(=O)O [o‐Hydroxy‐atorvastatin, o‐hydroxy‐atorvastatin]
AUCinf, Gmean (GCV%) [1, 15]: 41.7 (34.9) ng x h/mL
AUCinf, Mean (SD) [1, 15]: 44.1 (15.5) ng x h/mL
AUCinf, Median (min, max) [1, 15]: 42.8 (23.6, 81.7) ng x h/mL
AUClast, Gmean (GCV%) [1, 15]: 39.2 (36.8) ng x h/mL
AUClast, Mean (SD) [1, 15]: 41.7 (15.4) ng x h/mL
AUClast, Median (min, max) [1, 15]: 40.1 (21.4, 79.2) ng x h/mL
Cmax, Gmean (GCV%) [1, 15]: 3.98 (45.4) ng/mL
Cmax, Mean (SD) [1, 15]: 4.27 (2.11) ng/mL
Cmax, Median (min, max) [1, 15]: 3.88 (1.56, 11.3) ng/mL
T1/2, Gmean (GCV%) [1, 15]: 11.7 (28.4) h
T1/2, Mean (SD) [1, 15]: 12.2 (3.43) h
T1/2, Median (min, max) [1, 15]: 12.2 (7.33, 21.2) h
Tmax, Median (min, max) [1, 15]: 1.50 (0.50, 6.00) h
AUCinf, Gmean (GCV%) [1, 16]: 41.2 (34.7) ng x h/mL
AUCinf, Mean (SD) [1, 16]: 43.4 (14.3) ng x h/mL
AUCinf, Median (min, max) [1, 16]: 44.1 (23.1, 77.7) ng x h/mL
AUClast, Gmean (GCV%) [1, 16]: 37.0 (42.2) ng x h/mL
AUClast, Mean (SD) [1, 16]: 39.8 (15.0) ng x h/mL
AUClast, Median (min, max) [1, 16]: 41.6 (15.2, 75.8) ng x h/mL
Cmax, Gmean (GCV%) [1, 16]: 3.66 (56.9) ng/mL
Cmax, Mean (SD) [1, 16]: 4.14 (1.98) ng/mL
Cmax, Median (min, max) [1, 16]: 4.04 (1.42, 8.11) ng/mL
T1/2, Gmean (GCV%) [1, 16]: 9.64 (28.0) h
T1/2, Mean (SD) [1, 16]: 10.0 (2.95) h
T1/2, Median (min, max) [1, 16]: 9.67 (5.12, 19.9) h
Tmax, Median (min, max) [1, 16]: 2.00 (0.50, 5.00) h
AUCinf, Adjusted Gmean [1, 17]: 41.7 ng x h/mL
AUClast, Adjusted Gmean [1, 17]: 39.4 ng x h/mL
Cmax, Adjusted Gmean [1, 17]: 3.95 ng/mL
Time post-dose at which mean Cmax was observed (mean concentration-time profile) [1, 18]: 2 h
AUCinf Gmean ratio [1]: 1.02
AUClast Gmean ratio [1]: 1.07
Cmax Gmean ratio [1]: 1.08
Effect of asciminib on Cmax, AUClast and AUCinf (in words) [1]: did not affect; also recorded: comparable between treatments; also recorded: negligible
Time post-dose at which mean Cmax was observed (mean concentration-time profile) ([1]; atorvastatin alone): 2 h
AUCinf, Adjusted Gmean ([1]; atorvastatin alone): 40.7 ng x h/mL
AUClast, Adjusted Gmean ([1]; atorvastatin alone): 37.0 ng x h/mL
Cmax, Adjusted Gmean ([1]; atorvastatin alone): 3.66 ng/mL
